pIC50: −log10 of the molar value.
How the values were obtained:
[1] = tested on: K562; experiment: Growth inhibition of human K562 cells assessed as cell growth at 0.1 uM incubated for 48 hrs by sulforhodamine B assay relative to control; format: functional; settings: K562, 48 h, read-out: Activity
[2] = tested on: 786-0; experiment: Growth inhibition of human 786-0 cells assessed as cell growth at 0.1 uM incubated for 48 hrs by sulforhodamine B assay relative to control; format: functional; settings: 786-0, 48 h, read-out: Activity
[3] = tested on: RXF 393; experiment: Growth inhibition of human RXF393 cells assessed as cell growth at 0.01 uM incubated for 48 hrs by sulforhodamine B assay relative to control; format: functional; settings: RXF 393, 48 h, read-out: Activity
[4] = tested on: OVCAR-8; experiment: Growth inhibition of human OVCAR8 cells assessed as cell growth at 0.01 uM incubated for 48 hrs by sulforhodamine B assay relative to control; format: functional; settings: OVCAR-8, 48 h, read-out: Activity
[5] = tested on: RXF 393; experiment: Growth inhibition of human RXF393 cells incubated for 48 hrs by sulforhodamine B assay; format: functional, cell-based; settings: RXF 393, 48 h
[6] = tested on: SK-MEL-28; experiment: Growth inhibition of human SK-MEL-28 cells assessed as cell growth at 0.01 uM incubated for 48 hrs by sulforhodamine B assay relative to control; format: functional; settings: SK-MEL-28, 48 h, read-out: Activity
[7] = tested on: UO-31; experiment: Growth inhibition of human UO31 cells assessed as cell growth at 1 uM incubated for 48 hrs by sulforhodamine B assay relative to control; format: functional; settings: UO-31, 48 h, read-out: Activity
[8] = tested on: NCI-H322M; experiment: Growth inhibition of human NCI-H322M cells incubated for 48 hrs by sulforhodamine B assay; format: functional, cell-based
[9] = tested on: RXF 393; experiment: Growth inhibition of human RXF393 cells assessed as cell growth at 100 uM incubated for 48 hrs by sulforhodamine B assay relative to control; format: functional; settings: RXF 393, 48 h, read-out: Activity
[10] = tested on: HL-60(TB); experiment: Growth inhibition of human HL-60(TB) cells assessed as cell growth at 0.1 uM incubated for 48 hrs by sulforhodamine B assay relative to control; format: functional; settings: HL-60, 48 h, read-out: Activity
[11] = tested on: ACHN; experiment: Growth inhibition of human ACHN cells incubated for 48 hrs by sulforhodamine B assay; format: functional, cell-based
[12] = tested on: K562; experiment: Growth inhibition of human K562 cells assessed as cell growth at 100 uM incubated for 48 hrs by sulforhodamine B assay relative to control; format: functional; settings: K562, 48 h, read-out: Activity
[13] = tested on: HT-29; experiment: Growth inhibition of human HT-29 cells assessed as cell growth at 10 uM incubated for 48 hrs by sulforhodamine B assay relative to control; format: functional; settings: HT-29, 48 h, read-out: Activity
[14] = tested on: SK-OV-3; experiment: Growth inhibition of human SKOV3 cells assessed as cell growth at 100 uM incubated for 48 hrs by sulforhodamine B assay relative to control; format: functional; settings: SK-OV-3, 48 h, read-out: Activity
[15] = tested on: MDA-MB-231; experiment: Growth inhibition of human MDA-MB-231 cells assessed as cell growth at 1 uM incubated for 48 hrs by sulforhodamine B assay relative to control; format: functional; settings: MDA-MB-231, 48 h, read-out: Activity
[16] = tested on: UACC-257; experiment: Growth inhibition of human UACC257 cells assessed as cell growth at 100 uM incubated for 48 hrs by sulforhodamine B assay relative to control; format: functional; settings: UACC-257, 48 h, read-out: Activity
[17] = tested on: HCT-15; experiment: Growth inhibition of human HCT15 cells assessed as cell growth at 0.1 uM incubated for 48 hrs by sulforhodamine B assay relative to control; format: functional; settings: HCT-15, 48 h, read-out: Activity
[18] = tested on: HOP-62; experiment: Growth inhibition of human HOP62 cells assessed as cell growth at 100 uM incubated for 48 hrs by sulforhodamine B assay relative to control; format: functional; settings: HOP-62, 48 h, read-out: Activity
[19] = tested on: MOLT-4; experiment: Growth inhibition of human MOLT4 cells assessed as cell growth at 0.01 uM incubated for 48 hrs by sulforhodamine B assay relative to control; format: functional; settings: MOLT-4, 48 h, read-out: Activity
[20] = tested on: NCI-H522; experiment: Growth inhibition of human NCI-H522 cells incubated for 48 hrs by sulforhodamine B assay; format: functional, cell-based; settings: NCI-H522, 48 h
[21] = tested on: SW-620; experiment: Growth inhibition of human SW620 cells assessed as cell growth at 100 uM incubated for 48 hrs by sulforhodamine B assay relative to control; format: functional; settings: SW-620, 48 h, read-out: Activity
[22] = tested on: UACC-62; experiment: Growth inhibition of human UACC62 cells assessed as cell growth at 0.1 uM incubated for 48 hrs by sulforhodamine B assay relative to control; format: functional; settings: UACC-62, 48 h, read-out: Activity
[23] = tested on: Malme-3M; experiment: Growth inhibition of human MALME-3M cells incubated for 48 hrs by sulforhodamine B assay; format: functional, cell-based
[24] = tested on: NCI/ADR-RES; experiment: Growth inhibition of human NCI/ADR-RES cells incubated for 48 hrs by sulforhodamine B assay; format: functional, cell-based
[25] = tested on: LOX IMVI; experiment: Growth inhibition of human LOXIMVI cells assessed as cell growth at 100 uM incubated for 48 hrs by sulforhodamine B assay relative to control; format: functional; settings: read-out: Activity
[26] = tested on: SN12C; experiment: Growth inhibition of human SN12C cells assessed as cell growth at 1 uM incubated for 48 hrs by sulforhodamine B assay relative to control; format: functional; settings: read-out: Activity
[27] = tested on: UO-31; experiment: Growth inhibition of human UO31 cells incubated for 48 hrs by sulforhodamine B assay; format: functional, cell-based; settings: UO-31, 48 h
[28] = tested on: Hs-578T; experiment: Growth inhibition of human Hs578T cells assessed as cell growth at 0.01 uM incubated for 48 hrs by sulforhodamine B assay relative to control; format: functional; settings: read-out: Activity
[29] = tested on: UACC-62; experiment: Growth inhibition of human UACC62 cells assessed as cell growth at 0.01 uM incubated for 48 hrs by sulforhodamine B assay relative to control; format: functional; settings: UACC-62, 48 h, read-out: Activity
[30] = tested on: BT-549; experiment: Growth inhibition of human BT549 cells assessed as cell growth at 0.1 uM incubated for 48 hrs by sulforhodamine B assay relative to control; format: functional; settings: BT-549, 48 h, read-out: Activity
[31] = read-out: LC50 (the source's name)
[32] = read-out: pLC50 (the source's name) (converted)

## COc1cc(Cl)cc(-c2nn(-c3cccc(NC(=O)Nc4ccc(Cl)c(C(F)(F)F)c4)c3)cc2-c2ccncc2)c1
[1]
  growth at 0.1 µM: 91%
[2]
  growth at 0.1 µM: 96%
[3]
  growth at 0.01 µM: 97%
[4]
  growth at 0.01 µM: 98%
[5]
  LC50: 28.2 µM
[5]; read-out: GI50
  GI50: 1.71 µM
[5]; read-out: TGI
  TGI: 44.2 µM
[5]; read-out: pGI50 (converted)
  GI50: 1.7 µM
[5]; read-out: pTGI (converted)
  TGI: 9.33 µM
[6]
  growth at 0.01 µM: 98%
[7]
  growth at 1 µM: 64%
[8]; read-out: GI50
  GI50: 3.38 µM
[8]; [31]
  CC50: > 100 µM
[8]; read-out: TGI
  TGI: 24 µM
[8]; read-out: pGI50 (converted)
  GI50: 3.39 µM
[8]; [32]
  CC50: > 100 µM
[8]; read-out: pTGI (converted)
  TGI: 25.1 µM
[9]
  growth at 100 µM: -58%
[10]
  growth at 0.1 µM: 91%
[11]; read-out: GI50
  GI50: 0.752 µM
[11]; [31]
  CC50: > 100 µM
[11]; read-out: TGI
  TGI: 10.2 µM
[11]; read-out: pGI50 (converted)
  GI50: 0.759 µM
[11]; [32]
  CC50: > 100 µM
[11]; read-out: pTGI (converted)
  TGI: 14.5 µM
[12]
  growth at 100 µM: -51%
[13]
  growth at 10 µM: 5.57%
[14]
  growth at 100 µM: -39%
[15]
  growth at 1 µM: 69%
[16]
  growth at 100 µM: -86%
[17]
  growth at 0.1 µM: 54%
[18]
  growth at 100 µM: -48%
[19]
  growth at 0.01 µM: 99%
[20]; read-out: GI50
  GI50: 0.418 µM
[20]; [31]
  CC50: 9.74 µM
[20]; read-out: TGI
  TGI: 25 µM
[20]; read-out: pGI50 (converted)
  GI50: 0.417 µM
[20]; [32]
  CC50: 9.77 µM
[20]; read-out: pTGI (converted)
  TGI: 2.51 µM
[21]
  growth at 100 µM: -58%
[22]
  growth at 0.1 µM: 93%
[23]; read-out: GI50
  GI50: 1.21 µM
[23]; [31]
  CC50: > 100 µM
[23]; read-out: TGI
  TGI: 85 µM
[23]; read-out: pGI50 (converted)
  GI50: 1.7 µM
[23]; [32]
  CC50: > 100 µM
[23]; read-out: pTGI (converted)
  TGI: 3.16 µM
[24]; read-out: GI50
  GI50: 1.77 µM
[24]; [31]
  CC50: > 100 µM
[24]; read-out: TGI
  TGI: 11.5 µM
[24]; read-out: pGI50 (converted)
  GI50: 1.78 µM
[24]; [32]
  CC50: > 100 µM
[24]; read-out: pTGI (converted)
  TGI: 5.89 µM
[25]
  growth at 100 µM: -34%
[26]
  growth at 1 µM: 63%
[27]
  pIC50: 5.78
[27]; read-out: GI50
  GI50: 1.56 µM
[27]; [31]
  CC50: 95.4 µM
[27]; read-out: TGI
  TGI: 10.9 µM
[27]; read-out: pGI50 (converted)
  GI50: 1.66 µM
[27]; [32]
  CC50: 97.7 µM
[27]; read-out: pTGI (converted)
  TGI: 11 µM
[28]
  growth at 0.01 µM: 95%
[29]
  growth at 0.01 µM: 95%
[30]
  growth at 0.1 µM: 99%

Source: ChEMBL document CHEMBL4308841, “Synthesis, in vitro antiproliferative activity, and kinase inhibitory effects of pyrazole-containing diarylureas and diarylamides” (Eur J Med Chem, 2018)
